Assay results: publication PMC4258349 (International Journal of Medicinal Chemistry, 2014)
≈ marks a conversion by molar mass, not a printed value. Like-named read-outs stand apart in the source and are kept apart here.

How the values were obtained:
Shigella spp. [1] = test: microbe, parasite or virus in culture; type: cell-based; details: read-out: Minimum inhibitory concentration (MIC)
Staphylococcus aureus [2] = test: microbe, parasite or virus in culture; type: cell-based; details: read-out: Inhibition zone diameter
Escherichia coli [3] = test: microbe, parasite or virus in culture; type: cell-based; details: read-out: Minimum inhibitory concentration (MIC)
Aspergillus niger [4] = test: Agar well diffusion, inhibition zone diameter; type: cell-based; details: 48 h, read-out: Inhibition zone diameter
Salmonella typhi [5] = test: Minimum inhibitory concentration (dilutions, plot of IZD^2 against log concentration); type: cell-based; details: Salmonella enterica, read-out: Minimum inhibitory concentration (MIC)
[6] = Relative thermal stability (spectrophotometric absorbance); type: physicochemical; details: 0.1 mg/mL solution, 24 hours, at λ-max
Protocol: (§1) The relative thermal and acid stabilities of the complexes were determined spectrometrically. Dilute solutions (0.1 mg/mL) were prepared, their absorption spectra were generated, and the λ-max in each case was noted. The solution of each complex was divided into seven equal portions and the temperature regulated to 20°C, 30°C, 40°C, 50°C, 60°C, 70°C, and 80°C, respectively, for a period of 24 hours. The absorbance in each case was then measured. Similarly, the same concentration of these solutions was prepared at the pH range of 1–6 and the absorbance was measured. These changes in absorbance with temperature and pH, assuming that Beer-Lambert's law is obeyed, are a measure of the stability of the complexes.

[7] = Relative acid stability (spectrophotometric absorbance); type: physicochemical; details: 0.1 mg/mL solution, at λ-max
Pseudomonas aeruginosa [8] = test: microbe, parasite or virus in culture; type: cell-based; details: read-out: Minimum inhibitory concentration (MIC)
Bacillus subtilis [9] = test: microbe, parasite or virus in culture; type: cell-based; details: read-out: Inhibition zone diameter
Bacillus subtilis [10] = test: microbe, parasite or virus in culture; type: cell-based; details: read-out: Minimum inhibitory concentration (MIC)
[11] = Relative acid stability (spectrophotometric absorbance); type: physicochemical; details: 0.1 mg/mL solution, at λ-max; remark: listed apart in the source
Protocol: as §1
The changes in absorbance with pH are a measure of the acid stability of the compounds.

Escherichia coli [12] = test: microbe, parasite or virus in culture; type: cell-based; details: read-out: Inhibition zone diameter
Pseudomonas aeruginosa [13] = test: microbe, parasite or virus in culture; type: cell-based; details: read-out: Inhibition zone diameter
Shigella spp. [14] = test: microbe, parasite or virus in culture; type: cell-based; details: 24 h, read-out: Inhibition zone diameter
Salmonella typhi [15] = test: Agar well diffusion, inhibition zone diameter; type: cell-based; details: Salmonella enterica, 24 h, read-out: Inhibition zone diameter
Staphylococcus aureus [16] = test: microbe, parasite or virus in culture; type: cell-based; details: read-out: Minimum inhibitory concentration (MIC)
Aspergillus niger [17] = test: microbe, parasite or virus in culture; type: cell-based; details: read-out: Minimum inhibitory concentration (MIC)
[18] = Protocol: Saturated solution (10 mL) of each of the complexes and ligands at ambient temperature (28°C) was evaporated to dryness in an evaporating dish. The mass of the solid left in each case was determined. The solubilities were calculated using the relation: (1) S=mass/volume×1000. The solubilities of the complexes were compared with those of the ligands.
The solubilities were determined at 28°C.

Row | SMILES | MIC (Shigella spp. [1]) | zone of inhibition at 5000 µg/mL (Aspergillus niger [4]) | MIC (Salmonella typhi [5]) | Absorbance at 20°C [6] | Absorbance at 30°C [6] | Absorbance at 40°C [6] | Absorbance at 50°C [6] | Absorbance at 60°C [6] | Absorbance at 70°C [6] | Absorbance at 80°C [6] | Absorbance at pH 7 [7] | Absorbance at pH 1 [11] | Absorbance at pH 2 [11] | Absorbance at pH 3 [11] | Absorbance at pH 4 [11] | Absorbance at pH 5 [11] | Absorbance at pH 6 [11] | zone of inhibition at 5000 µg/mL (Shigella spp. [14]) | zone of inhibition at 5000 µg/mL (Salmonella typhi [15]) | further results
1 | Cc1onc(-c2ccccc2Cl)c1C(=O)N[C@@H]1C(=O)N2[C@@H]1SC(C)(C)[C@@H]2C(=O)O [Cloxacillin] | 12.5 µg/mL (≈ 28.7 µM) | 30 mm | 14.5 µg/mL (≈ 33.3 µM) | 0.721 | 0.727 | 0.683 | 0.455 | 0.337 | 0.190 | 0.184 | 0.722 | 0.437 | 0.449 | 0.550 | 0.554 | 0.696 | 0.704 | 30 mm | 27 mm | zone of inhibition at 5000 µg/mL (Staphylococcus aureus [2]; S. aureus clinical isolate, 5 mg/mL, 32°C 24 hours): 31.5 mm; MIC (Escherichia coli [3]; E. coli clinical isolate): 14.5 µg/mL (≈ 33.3 µM); MIC (Pseudomonas aeruginosa [8]; P. aeruginosa clinical isolate): 22 µg/mL (≈ 50.5 µM); zone of inhibition at 5000 µg/mL (Bacillus subtilis [9]; B. subtilis clinical isolate, 5 mg/mL, 32°C 24 hours): 32 mm; MIC (Bacillus subtilis [10]; B. subtilis clinical isolate): 12.5 µg/mL (≈ 28.7 µM); zone of inhibition at 5000 µg/mL (Escherichia coli [12]; E. coli clinical isolate, 5 mg/mL, 32°C 24 hours): 28 mm; zone of inhibition at 5000 µg/mL (Pseudomonas aeruginosa [13]; P. aeruginosa clinical isolate, 5 mg/mL, 32°C 24 hours): 20 mm; MIC (Staphylococcus aureus [16]; S. aureus clinical isolate): 12.5 µg/mL (≈ 28.7 µM); MIC (Aspergillus niger [17]; A. niger clinical isolate): 14.5 µg/mL (≈ 33.3 µM); Solubility [18]: Negligible
2 | CC1(C)S[C@@H]2[C@H](NC(=O)[C@H](N)c3ccc(O)cc3)C(=O)N2[C@H]1C(=O)O [Amoxicillin] | 11 µg/mL (≈ 30.1 µM) | 35 mm | 11 µg/mL (≈ 30.1 µM) | 0.661 | 0.664 | 0.643 | 0.428 | 0.369 | 0.312 | 0.126 | 0.664 | 0.387 | 0.404 | 0.499 | 0.511 | 0.603 | 0.620 | 30 mm | 35.5 mm | zone of inhibition at 5000 µg/mL (Staphylococcus aureus [2]; 24 h): 30 mm; MIC (Escherichia coli [3]): 12.5 µg/mL (≈ 34.2 µM); MIC (Pseudomonas aeruginosa [8]): 14 µg/mL (≈ 38.3 µM); zone of inhibition at 5000 µg/mL (Bacillus subtilis [9]; 24 h): 30 mm; MIC (Bacillus subtilis [10]): 12.5 µg/mL (≈ 34.2 µM); zone of inhibition at 5000 µg/mL (Escherichia coli [12]; 24 h): 33 mm; zone of inhibition at 5000 µg/mL (Pseudomonas aeruginosa [13]; 24 h): 28 mm; MIC (Staphylococcus aureus [16]): 12.5 µg/mL (≈ 34.2 µM); MIC (Aspergillus niger [17]): 15 µg/mL (≈ 41 µM)
